Experiments:
SCNT blastocysts = experiment: ntESC derivation from SCNT blastocysts; assay type: cell-based, mouse; conditions: for No. of blastocyst attached to feeder cells / No. of established ntESC lines / blastocyst attached to feeder cells (% per blast) / established ntESC lines (% per MII oocyte) / established ntESC lines (% per blast): cumulus donor cells (BDF1, female)
Procedure: Blastocysts were denuded by acid tyrode treatment and cultured on mitomycin treated MEF feeder cells and in DMEM supplemented with 5% FBS, 10% KnockOut serum replacement (Life Technologies #10828-028), 0.1 mM non-essential amino acids, 2 mM GlutaMAX, 50 U/ml penicillin-streptomycin, 0.1 mM 2-mercaptoethanol and 2000 U leukemia inhibitory factor (LIF, Millipore #ESG1107) at 37° C. 5% CO2. Four to five days later, outgrowths from attached embryos were dissociated with 0.25% trypsin and passaged all onto new feeder cells. On the following day, the medium was replaced with N2B27-LIF media [DMEM/F12 (Life Technologies #10565-042) supplemented with 0.1 mM non-essential amino acids, 2 mM GlutaMAX, 50 U/ml penicillin-streptomycin, 0.1 mM 2-mercaptoethanol, 0.5×N2 supplement (Life technologies #17502-048), 0.5× B27 supplement (Life technologies #17504-044), […] CHIR99021 (STEMGENT #04-0004), 0.5 μM PD0325901 (STEMGENT #04-0006) and 1000 U LIF]. Five days later, expanded cells were reseeded as established ntESC.

[1] = tested on: reprogramming resistant regions (RRRs); experiment: RNA-seq analysis of 2-cell SCNT embryos; assay type: cell-based, mouse
Procedure: The embryos were directly lysed and used for cDNA synthesis using SMARTer Ultra Low Input RNA cDNA preparation kit (Clontech). After amplification, the cDNA samples were fragmented using Covaris sonicator (Covaris). Sequencing libraries were made with the fragmented DNA using NEBNext Ultra DNA Library Prep Kit for Illumina according to manufacturer's instruction (New England Biolabs). Single end 50 bp sequencing was performed on a HiSeq 2500 sequencer (Illumina). Sequencing reads were mapped to the mouse genome (mm9) with NovoalignV3.02.00. All programs were performed with default settings (unless otherwise specified). Uniquely mapped reads (about 70% of total reads) were subsequently assembled into transcripts guided by the reference annotation (UCSC gene models) with Cufflinks v2.0.2. Expression level of each gene was quantified with normalized FPKM (fragments per kilobase of exon per million mapped fragments). […] Statistical analyses were implemented with R (world wide web at www.r-project.org/). Independent 2-group Wilcoxon rank sum test were used to compare distributions using the wilcox.test function in R. Pearson's r coefficient was calculated using the cor function with default parameters. The hierarchical clustering analysis of the global gene expression pattern in different samples was carried out using hearmap.2 function (gplots package) in R.
A sliding window (size 100 kb, step size 20 kb) was used to assess the genome-wide expression level of 1-cell and 2-cell embryos. For each window, the expression level was quantified with normalized RPM (reads per millions of uniquely mapped reads). […] These activated regions were classed into three groups based on their expression differences in SCNT and IVF 2-cell embryos.

[2] = TSA treatment 15 nM for 8 h, water or mRNA 1800 ng/μl injected

## Kdm4d WT mRNA: in vitro transcribed full length mouse Kdm4d mRNA, encoding an H3K9me3-specific histone demethylase
SCNT blastocysts; SCNT blastocysts from cumulus donor cells
  efficiency of attachment or ntESC derivation per blastocyst, compared to control (in words): did not show any significant difference
SCNT blastocysts; cumulus donor cells
  ntESC derivation efficiency based on the total number of MII oocytes used for SCNT (in words): greatly improved
SCNT blastocysts; [2]
  No. of blastocyst attached to feeder cells: 16
  No. of established ntESC lines: 11
  blastocyst attached to feeder cells (% per blast): 76.2%
  established ntESC lines (% per MII oocyte): (44.0) %
  established ntESC lines (% per blast): (52.3) %
SCNT blastocysts; no TSA, mRNA 1800 ng/μl
  No. of blastocyst attached to feeder cells: 13
  No. of established ntESC lines: 10
  blastocyst attached to feeder cells (% per blast): 72.2%
  established ntESC lines (% per MII oocyte): (50.0) %
  established ntESC lines (% per blast): (55.6) %
[1]
  repression of major satellite repeats in 2-cell SCNT embryos (in words): completely restored
[1]; 2-cell SCNT embryos
  % of the 222 RRRs activated (FC >2) compared to control SCNT embryos: 83%
  SCNT-induced repression of class III retrotransposon elements such as MERVL (in words): partly relieved
  number of the 222 RRRs activated (FC >2): 184
[1]; 1212 without injection
  total number of differentially expressed genes (FC >3) between SCNT and IVF 2-cell embryos: 475

— patent publication US12644133B2, “Methods and compositions to increase somatic cell nuclear transfer (SCNT) efficiency by removing histone H3-lysine trimethylation” (The Children's Medical Center Corporation, priority 2014, dated 2026)
